The values below come from PubChem BioAssay AID1259407 (Chemical Carcinogenesis Research Information System (CCRIS), 2018).

The data set concerns CCRIS mutagenicity, Ames/micronucleus/aberration tests. Kind of data set: CCRIS mutagenicity studies.
Setting [1] is: Test System: AMES SALMONELLA TYPHIMURIUM, Strain/Indicator: TA100, Metabolic Activation: NONE, Method: PREINCUBATION
The mark [2] stands for this setting: Test System: AMES SALMONELLA TYPHIMURIUM, Strain/Indicator: TA98, Metabolic Activation: NONE, Method: STANDARD PLATE.
Where [3] appears, read: Test System: AMES SALMONELLA TYPHIMURIUM, Strain/Indicator: TA98, Metabolic Activation: RAT, LIVER, S-9, AROCLOR 1254, Method: STANDARD PLATE.
The mark [4] stands for this setting: Test System: AMES SALMONELLA TYPHIMURIUM, Strain/Indicator: TA100, Metabolic Activation: NONE, Method: STANDARD PLATE.
The mark [5] stands for this setting: Test System: AMES SALMONELLA TYPHIMURIUM, Strain/Indicator: TA100, Metabolic Activation: RAT, LIVER, S-9, AROCLOR 1254, Method: STANDARD PLATE.
[6] abbreviates: Test System: AMES SALMONELLA TYPHIMURIUM, Strain/Indicator: TA1535, Metabolic Activation: NONE, Method: STANDARD PLATE.
[7] abbreviates: Test System: AMES SALMONELLA TYPHIMURIUM, Strain/Indicator: TA1535, Metabolic Activation: RAT, LIVER, S-9, AROCLOR 1254, Method: STANDARD PLATE.

The source made the active and inactive calls. The rule behind the calls is not given here.

Turning to `Clc1ccc(C(Cl)(Cl)Cl)cc1`, the mutagenic call was “active; positive (structural changes)” (End Point: IN VITRO CHROMOSOMAL ABERRATIONS, Test System: CHL CELLS, Metabolic Activation: NONE); “active; positive (structural changes)” (End Point: IN VITRO CHROMOSOMAL ABERRATIONS, Test System: CHL CELLS, Metabolic Activation: RAT, LIVER, S-9, SODIUM PHENOBARBITAL AND 5,6-BENZOFLAVONE); “inactive; negative” (Test System: AMES SALMONELLA TYPHIMURIUM, Strain/Indicator: TA98, Metabolic Activation: NONE, Method: PREINCUBATION); “active; positive” (Test System: AMES SALMONELLA TYPHIMURIUM, Strain/Indicator: TA98, Metabolic Activation: RAT LIVER S-9, PHENOBARBITAL AND BETA-NAPHTHOFLAVONE, Method: PREINCUBATION); “inactive; negative” under setting [1]; “active; positive” (Test System: AMES SALMONELLA TYPHIMURIUM, Strain/Indicator: TA100, Metabolic Activation: RAT LIVER S-9, PHENOBARBITAL AND BETA-NAPHTHOFLAVONE, Method: PREINCUBATION). Also, the mutagenic call (Test System: AMES SALMONELLA TYPHIMURIUM, Strain/Indicator: TA1535, Metabolic Activation: NONE, Method: PREINCUBATION) was “inactive; negative”; the mutagenic call (Test System: AMES SALMONELLA TYPHIMURIUM, Strain/Indicator: TA1535, Metabolic Activation: RAT LIVER S-9, PHENOBARBITAL AND BETA-NAPHTHOFLAVONE, Method: PREINCUBATION) was “active; positive”; the mutagenic call (Test System: AMES SALMONELLA TYPHIMURIUM, Strain/Indicator: TA1537, Metabolic Activation: NONE, Method: PREINCUBATION) was “inactive; negative”; the mutagenic call (Test System: AMES SALMONELLA TYPHIMURIUM, Strain/Indicator: TA1537, Metabolic Activation: RAT LIVER S-9, PHENOBARBITAL AND BETA-NAPHTHOFLAVONE, Method: PREINCUBATION) was “active; positive”; the mutagenic call (Test System: AMES SALMONELLA TYPHIMURIUM, Strain/Indicator: TA1538, Metabolic Activation: NONE, Method: PREINCUBATION) was “inactive; negative”; the mutagenic call (Test System: AMES SALMONELLA TYPHIMURIUM, Strain/Indicator: TA1538, Metabolic Activation: RAT LIVER S-9, PHENOBARBITAL AND BETA-NAPHTHOFLAVONE, Method: PREINCUBATION) is “inactive; negative”. Moreover, the mutagenic call by setting is: (Test System: E.COLI, Strain/Indicator: WP2UVRA, Metabolic Activation: NONE, Method: PREINCUBATION) “inactive; negative”; (Test System: E.COLI, Strain/Indicator: WP2UVRA, Metabolic Activation: RAT LIVER S-9, PHENOBARBITAL AND BETA-NAPHTHOFLAVONE, Method: PREINCUBATION) “active; positive”.

In the case of `CCCCCCCCCCCCN`, the mutagenic call is, setting by setting: (End Point: In vitro Chromosomal aberrations, Test System: CHO Cells, Metabolic Activation: None) “inactive; negative; cytotoxic at 12 and 18 ug/ml”; (End Point: In vitro Chromosomal aberrations, Test System: CHO Cells, Metabolic Activation: Rodent S-9) “inactive; negative; cytotoxic at 12 and 18 ug/ml”.

As for `OC[C@H]1O[C@@H](OC2[C@@H](CO)O[C@H](O)[C@H](O)[C@H]2O)[C@H](O)[C@@H](O)C1O[C@@H]1O[C@H](CO)[C@@H](O)[C@H](O)[C@H]1O` (stereo not given in full), the mutagenic call is, setting by setting: (End Point: IN VIVO CHROMOSOMAL ABERRATIONS, Test System: BONE MARROW CELLS, Species: MOUSE, Strain/Sex: CD-1, MALE, Route: IP) “inactive; negative”; (End Point: IN VIVO CHROMOSOMAL ABERRATIONS, Test System: SPERMATOGONIAL CELLS, Species: MOUSE, Strain/Sex: CD-1, MALE, Route: IP) “inactive; negative”.

In the case of `C=CC(=O)OCC(C)(C)C`, the mutagenic call is “inactive; negative” under setting [2]; “inactive; negative” under setting [3]; “inactive; negative” (Test System: AMES SALMONELLA TYPHIMURIUM, Strain/Indicator: TA98, Metabolic Activation: RAT, LIVER, S-9, SODIUM PHENOBARBITAL, Method: STANDARD PLATE); “inactive; negative” under setting [4]; “inactive; negative” under setting [5]; “inactive; negative” (Test System: AMES SALMONELLA TYPHIMURIUM, Strain/Indicator: TA100, Metabolic Activation: RAT, LIVER, S-9, SODIUM PHENOBARBITAL, Method: STANDARD PLATE). In addition, the mutagenic call by setting is: under setting [6], “inactive; negative”; under setting [7], “inactive; negative”; (Test System: AMES SALMONELLA TYPHIMURIUM, Strain/Indicator: TA1535, Metabolic Activation: RAT, LIVER, S-9, SODIUM PHENOBARBITAL, Method: STANDARD PLATE) “inactive; negative”; (Test System: AMES SALMONELLA TYPHIMURIUM, Strain/Indicator: TA1537, Metabolic Activation: NONE, Method: STANDARD PLATE) “inactive; negative”; (Test System: AMES SALMONELLA TYPHIMURIUM, Strain/Indicator: TA1537, Metabolic Activation: RAT, LIVER, S-9, AROCLOR 1254, Method: STANDARD PLATE) “inactive; negative”; (Test System: AMES SALMONELLA TYPHIMURIUM, Strain/Indicator: TA1537, Metabolic Activation: RAT, LIVER, S-9, SODIUM PHENOBARBITAL, Method: STANDARD PLATE) “inactive; negative”. Moreover, the mutagenic call was “inactive; negative” (Test System: AMES SALMONELLA TYPHIMURIUM, Strain/Indicator: TA1538, Metabolic Activation: NONE, Method: STANDARD PLATE); “inactive; negative” (Test System: AMES SALMONELLA TYPHIMURIUM, Strain/Indicator: TA1538, Metabolic Activation: RAT, LIVER, S-9, AROCLOR 1254, Method: STANDARD PLATE); “inactive; negative” (Test System: AMES SALMONELLA TYPHIMURIUM, Strain/Indicator: TA1538, Metabolic Activation: RAT, LIVER, S-9, SODIUM PHENOBARBITAL, Method: STANDARD PLATE).

For `OCc1ccc(-c2nccc3c2[nH]c2ccccc23)o1`, under setting [1], the mutagenic call is “active; positive”.

Take `O/N=C/c1ccccn1`: the mutagenic call reads like this: (Test System: AMES SALMONELLA TYPHIMURIUM, Strain/Indicator: TA102, Metabolic Activation: RAT, LIVER, S-9, PHENOBARBITAL AND 5,6-BENZOFLAVONE, Method: STANDARD PLATE) “inactive; negative”; (Test System: AMES SALMONELLA TYPHIMURIUM, Strain/Indicator: TA2638, Metabolic Activation: RAT, LIVER, S-9, PHENOBARBITAL AND 5,6-BENZOFLAVONE, Method: STANDARD PLATE) “inactive; negative”; (Test System: E. COLI, Strain/Indicator: WP2 (PKM101), Metabolic Activation: RAT, LIVER, S-9, PHENOBARBITAL AND 5,6-BENZOFLAVONE, Method: STANDARD PLATE) “inactive; negative”; (Test System: E. COLI, Strain/Indicator: WP2 UVRA (PKM101), Metabolic Activation: RAT, LIVER, S-9, PHENOBARBITAL AND 5,6-BENZOFLAVONE, Method: STANDARD PLATE) “active; positive”.

With `CN(C)C1Cc2cccc3cccc(c23)C1`, the mutagenic call by setting is: (Test System: AMES SALMONELLA TYPHIMURIUM, Strain/Indicator: TA97, Metabolic Activation: NONE, Method: STANDARD PLATE) “inactive; negative”; (Test System: AMES SALMONELLA TYPHIMURIUM, Strain/Indicator: TA97, Metabolic Activation: RAT, LIVER, S-9, AROCLOR 1254, Method: STANDARD PLATE) “inactive; negative”; under setting [2], “inactive; negative”; under setting [3], “active; positive”; under setting [4], “inactive; negative”; under setting [5], “inactive; negative”. In addition, the mutagenic call is, setting by setting: (Test System: AMES SALMONELLA TYPHIMURIUM, Strain/Indicator: TA102, Metabolic Activation: NONE, Method: STANDARD PLATE) “inactive; negative”; (Test System: AMES SALMONELLA TYPHIMURIUM, Strain/Indicator: TA102, Metabolic Activation: RAT, LIVER, S-9, AROCLOR 1254, Method: STANDARD PLATE) “inactive; negative”; under setting [6], “inactive; negative”; under setting [7], “inactive; negative”.

In the case of `C=C(C)C1CC=C(CO)CC1` (stereo not given), the mutagenic call (Test System: Mouse lymphoma, Strain/Indicator: L5178Y (tk+/tk-), Metabolic Activation: None, Method: Suspension/plate) is “inactive; negative” and the mutagenic call (Test System: Mouse lymphoma, Strain/Indicator: L5178Y (tk+/tk-), Metabolic Activation: Rat, Liver, S-9, Aroclor 1254, Method: Suspension/plate) was “inactive; positive. retest at same dose: negative”.
